The test deals with P388 leukemia. Put plainly: NCI tumour cell line growth inhibition, 48 h.

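How tested: cells in 96-well plates exposed to compound for 48 hours at five concentrations. TGI: total growth inhibition.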

Compound `O=c1n(CC2CO2)c(=O)n(CC2CO2)c(=O)n1CC1CO1` (stereo unspecified) came in with a TGI of 122 µM.

The record behind these values is PubChem BioAssay (NCI).
